# Reference: patent US20230304058A1, “NOVEL 5'CAP ANALOG HAVING CAP2 STRUCTURE AND PREPARATION METHOD THEREFOR” (Shenzhen Rhegen Biotechnology Co., Ltd., priority 2020, published 2023)
# How the values were obtained:
# [1] = test system: mRNA; details: background, co-transcriptional capping; cited from earlier work
# [2] = molecular target: T1, T7 Enzyme Mix (Escherichia phage T7, UniProt P00573); details: background, co-transcriptional capping; cited from earlier work
# [3] = background; cited from earlier work
# [4] = test system: TLR3, TLR7, TLR8 and RIG-1; assay: Intracellular immunogenicity of capped mRNA by RNA immunoprecipitation and quantitative PCR; assay type: cell-based; details: relative to ARCA; Human-derived PBMC cells, 5 μg mRNA, Lipofectamine 2000, 24 h
# Experimental: Experimental methods: the intracellular immunoproteins TLR3, TLR7, TLR8 and RIG-1 were immunoprecipitated together with their bound RNAs by RNA immunoprecipitation, and finally these mRNAs were identified by real-time quantitative PCR, and their relative abundance was proportional to their immunogenicity.
# The cells were collected by trypsin digestion 24 h later and resuspended in PBS, centrifuged, and collected.
# Fixative was added to the cells, and after 15 minutes glycine was added for termination of fixation, followed by centrifugation to collect the cells. Cells were resuspended by adding lysate, incubated on ice at 4° C. for 30 min, centrifuged at 2400 g for 10 min, and the supernatant was collected.
# TLR3, TLR7, TLR8 and RIG-1 antibodies (2-10 μg) were added to the supernatant (6-10 mg) followed by gentle incubation at 4° C. for 2 hours. Protein AIG beads (40 μL) were then added to them and incubated gently for 1 h at 4° C.
# Centrifuge at 2500 rpm for 30 seconds with precipitated magnetic beads and remove the supernatant. Resuspend the beads in 500 μL of RIP buffer. Wash in RIP buffer a total of three times, followed by one wash in PBS.
# Resuspend magnetic beads in TRIzol RNA Extraction Reagent (1 mL) and isolate co-precipitated RNA, and then elute RNA using nuclease-free water (20 μL).
# 6. Reverse transcribe (RT) the RNA into cDNA and design primers according to the mRNA sequence for quantitative PCR analysis. mRNA immunogenicity is proportional to the number of mRNA copies precipitated by magnetic beads.
# [5] = molecular target: T1, T7 Enzyme Mix; assay: In vitro transcription mRNA synthesis with cap analog, reaction yield; assay type: biochemical; details: per ml transcription reaction system; 37° C. for 6 h; LiCl purification
# Experimental: 1. Before synthesizing mRNA, linearize the plasmid with Notl, digested at […] overnight;
# 2. Extract with DNA template;
# React at 37° C. for 6 h. Digest with TURBO DNase for 15 min.
# 4. Purify the transcription products using LiCl solution and calculate the reaction yields.
# [6] = test system: mRNA; assay: mRNA capping rate by RNase H cleavage and LC-MS; assay type: biochemical; details: ratio of capped and uncapped mRNA
# From the text: The mRNA molecules with different Cap structures obtained in Example 1 were subjected to enzymatic cleavage, and the ratio of capped and uncapped mRNA molecules could be determined in a liquid chromatography-mass spectrometry analysis experiment.
# 1. Concentrate the beads using a magnet, aspirate the supernatant storage solution, and add an equal volume of 0.1 M NaOH +0.05 M NaCl;
# 2. Aspirate the supernatant and resuspend the beads with an equal volume of 0.1 M NaCl, keep the concentration constant;
# 3. Anneal mRNA and cleavage tags, configure the following reaction system;
# Gradient annealing: 95° C. 5 min
# 4. Combining cleavage tags with beads • Beads were centrifuged at 15,000 g for 5 min, and the supernatant was removed, then 120 μl of annealed mRNA and tags were added and incubated for 30 min at room temperature, during which time they were gently shaken to ensure adequate binding.
# 5. Enzyme cleavage using RNase H; • Add 10 μl RNase H and incubate at 37° C. for 3 h. Precipitate the beads with magnet and discard the supernatant. • Add 100 μl washing buffer, mix thoroughly, magnet precipitate for 2 min, and discard the supernatant. Repeat 3 times. • Wash with DI water for 3 times.
# 6. Hydrolysis with RppH; • Use 10 units RppH in nebuffer 2 to hydrolyze at room temperature for 1 h.
# DI water was aspirated, 100 μl of 75% ethanol preheated to 80° C. was added, incubat for 3 min, and magnet precipitat for 3 min. The supernatant was taken, followed by evaporating, and centrifuge for 45 min to a volume of 10 μl. Finally, the sample was resuspended in 50 μl of […] EDTA/1% MeOH and left for LC-MS analysis.
# 9. the mRNA capping rate of different Cap analogs synthesized was analyzed with LC-MS.
# T1 sequence (P00573 whole entry): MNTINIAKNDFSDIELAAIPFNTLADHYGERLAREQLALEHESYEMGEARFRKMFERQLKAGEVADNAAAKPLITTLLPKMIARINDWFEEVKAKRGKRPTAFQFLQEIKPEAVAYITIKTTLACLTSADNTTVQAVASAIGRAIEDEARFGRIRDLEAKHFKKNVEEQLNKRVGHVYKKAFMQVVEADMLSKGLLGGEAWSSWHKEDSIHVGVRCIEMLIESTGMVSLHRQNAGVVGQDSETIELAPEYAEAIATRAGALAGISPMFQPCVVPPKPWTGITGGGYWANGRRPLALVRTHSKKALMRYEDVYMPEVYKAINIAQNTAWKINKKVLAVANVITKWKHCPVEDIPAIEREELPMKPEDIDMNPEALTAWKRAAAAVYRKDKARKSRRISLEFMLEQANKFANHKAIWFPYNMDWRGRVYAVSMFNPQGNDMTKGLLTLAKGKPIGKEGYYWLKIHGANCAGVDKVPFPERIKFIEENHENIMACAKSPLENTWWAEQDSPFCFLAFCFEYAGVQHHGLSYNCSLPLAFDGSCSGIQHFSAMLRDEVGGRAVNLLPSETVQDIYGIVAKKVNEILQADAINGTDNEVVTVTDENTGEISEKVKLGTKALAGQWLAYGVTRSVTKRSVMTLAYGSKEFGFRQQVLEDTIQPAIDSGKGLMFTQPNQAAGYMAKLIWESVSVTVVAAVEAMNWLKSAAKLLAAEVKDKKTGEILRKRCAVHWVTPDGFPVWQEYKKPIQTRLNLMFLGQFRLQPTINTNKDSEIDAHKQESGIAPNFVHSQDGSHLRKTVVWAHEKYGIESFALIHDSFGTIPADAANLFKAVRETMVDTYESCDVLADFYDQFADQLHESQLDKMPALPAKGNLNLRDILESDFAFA
Compound,capping efficiency [1],RNA prepared per ml of transcription reaction system [2],immunogenicity of transcribed product [3],Intracellular immunogenicity of mRNA when using different Cap structures [4],Mass of final product obtained from 1 ml mRNA synthesis reaction system [5],mRNA capping rates when using different Cap structures [6]
CO[C@H]1[C@@H](O)[C@H](n2c[n+](C)c3c(=O)[nH]c(N)nc32)O[C@@H]1COP(=O)(O)OP(=O)(O)OP(=O)(O)OC[C@H]1O[C@@H](n2cnc3c(=O)[nH]c(N)nc32)[C@H](O)[C@@H]1O [ARCA],70%,≤ 1.5 mg,highly immunogenic,1,–,–
"CO[C@@H]1[C@H](O)[C@@H](COP(=O)(O)O[C@H]2[C@@H](OC)[C@H](n3ccc(=O)[nH]c3=O)O[C@@H]2COP(=O)(O)OP(=O)(O)OP(=O)([O-])OC[C@H]2O[C@@H](n3c[n+](C)c4c(=O)[nH]c(N)nc43)[C@H](O)[C@@H]2OC)O[C@H]1n1ccc(N)nc1=O [Cap analog 28, 3-O-Me-m7G(5′)ppp(5′)(2′OMeU)p(2′OMeC)]",–,–,–,0.52,4.8 mg,94.62%
"CO[C@@H]1[C@H](O)[C@@H](COP(=O)(O)O[C@H]2[C@@H](OC)[C@H](n3cnc4c(N)ncnc43)O[C@@H]2COP(=O)(O)OP(=O)(O)OP(=O)([O-])OC[C@H]2O[C@@H](n3c[n+](C)c4c(=O)[nH]c(N)nc43)[C@H](O)[C@@H]2OC)O[C@H]1n1ccc(=O)[nH]c1=O [Cap analog 29, 3-O-Me-m7G(5′)ppp(5′)(2′OMeA)p(2′OMeU)]",–,–,–,0.27,5.3 mg,94.93%
"CO[C@@H]1[C@H](O)[C@@H](COP(=O)(O)O[C@H]2[C@@H](OC)[C@H](n3cnc4c(=O)[nH]c(N)nc43)O[C@@H]2COP(=O)(O)OP(=O)(O)OP(=O)([O-])OC[C@H]2O[C@@H](n3c[n+](C)c4c(=O)[nH]c(N)nc43)[C@H](O)[C@@H]2OC)O[C@H]1n1ccc(=O)[nH]c1=O [Cap analog 30, 3-O-Me-m7G(5′)ppp(5′)(2′OMeG)p(2′OMeU)]",–,–,–,0.31,5.3 mg,94.8%
"CO[C@@H]1[C@H](O)[C@@H](COP(=O)(O)O[C@H]2[C@@H](OC)[C@H](n3ccc(N)nc3=O)O[C@@H]2COP(=O)(O)OP(=O)(O)OP(=O)([O-])OC[C@H]2O[C@@H](n3c[n+](C)c4c(=O)[nH]c(N)nc43)[C@H](O)[C@@H]2OC)O[C@H]1n1ccc(=O)[nH]c1=O [Cap analog 31, 3-O-Me-m7G(5′)ppp(5′)(2′OMeC)p(2′OMeU)]",–,–,–,0.4,4.5 mg,94.7%
"CO[C@@H]1[C@H](O)[C@@H](COP(=O)(O)O[C@H]2[C@@H](OC)[C@H](n3ccc(=O)[nH]c3=O)O[C@@H]2COP(=O)(O)OP(=O)(O)OP(=O)([O-])OC[C@H]2O[C@@H](n3c[n+](C)c4c(=O)[nH]c(N)nc43)[C@H](O)[C@@H]2OC)O[C@H]1n1ccc(=O)[nH]c1=O [Cap analog 32, 3-O-Me-m7G(5′)ppp(5′)(2′OMeU)p(2′OMeU)]",–,–,–,0.3,4.3 mg,94.66%
COC1C(OP(=O)(O)OCC2OC(n3cnc4c(=O)[nH]c(N)nc43)C(O)C2O)C(COP(=O)(O)OP(=O)([O-])OP(=O)(O)OCC2OC(n3c[n+](C)c4c(=O)[nH]c(N)nc43)C(O)C2O)OC1n1cnc2c(N)ncnc21 (centres unmarked) [Cleancap],90%,4 mg,less immunogenic than ARCA,0.76,–,–
